# Assay results taken from ChEMBL document CHEMBL3885881, “DrugMatrix”.
# Species: Rattus norvegicus
# Assay: DrugMatrix - Regimen: Daily Repeat
# Type: toxicity, organism-based, Sprague-Dawley
# Parameters: regimen Daily Repeat, gender Male, age 6-8 weeks
# Conditions: in vivo, po, route oral GAVAGE, vehicle 100 % WATER; for ABSOLUTE BASOPHIL / ABSOLUTE EOSINOPHIL / ABSOLUTE LYMPHOCYTE / ABSOLUTE MONOCYTE / ABSOLUTE SEGMENTED NEUTROPHIL / BASOPHIL / EOSINOPHIL / ERYTHROCYTE COUNT / HEMATOCRIT / HEMOGLOBIN / LEUKOCYTE COUNT / LYMPHOCYTE / MEAN CORPUSCULAR HEMOGLOBIN / MEAN CORPUSCULAR HEMOGLOBIN CONCENTRATION / MEAN CORPUSCULAR VOLUME / MONOCYTE / NEUTROPHIL / NUCLEATED RED BLOOD CELLS / PLATELET COUNT: tissue Blood; for ALANINE AMINOTRANSFERASE / ALBUMIN / ALKALINE PHOSPHATASE / ASPARTATE AMINOTRANSFERASE / BLOOD UREA NITROGEN / CARBON DIOXIDE / CHLORIDE / CHOLESTEROL / CREATINE PHOSPHOKINASE / CREATININE / GLUCOSE / LACTATE DEHYDROGENASE / LIPASE / PHOSPHORUS / POTASSIUM / SODIUM / TOTAL BILIRUBIN / TOTAL PROTEIN / URIC ACID: tissue Plasma
# [1] = 0 mg/kg, 72 h, dose level Control, time 3 day
# [2] = 0 mg/kg, 120 h, dose level Control, time 5 day
# [3] = 10 mg/kg, 72 h, dose level Low, time 3 day
smiles,measurement,setting,value
NNc1nncc2ccccc12 [HYDRALAZINE],ABSOLUTE BASOPHIL,[1],0 CELLS/uL
same,ABSOLUTE EOSINOPHIL,[1],20.17 CELLS/uL
same,ABSOLUTE LYMPHOCYTE,[1],12371.67 CELLS/uL
same,ABSOLUTE MONOCYTE,[1],166 CELLS/uL
same,ABSOLUTE SEGMENTED NEUTROPHIL,[1],1292.17 CELLS/uL
same,BASOPHIL,[1],0%
same,EOSINOPHIL,[1],0.17%
same,ERYTHROCYTE COUNT,[1],5.46 x10E6/uL
same,HEMATOCRIT,[1],34.38%
same,HEMOGLOBIN,[1],13.32 G/DL
same,LEUKOCYTE COUNT,[1],13.85 x10E3/uL
same,LYMPHOCYTE,[1],88.5%
same,MEAN CORPUSCULAR HEMOGLOBIN,[1],24.42 pg
same,MEAN CORPUSCULAR HEMOGLOBIN CONCENTRATION,[1],38.7 G/DL
same,MEAN CORPUSCULAR VOLUME,[1],63.07 fL
same,MONOCYTE,[1],1.17%
same,NEUTROPHIL,[1],10.17%
same,NUCLEATED RED BLOOD CELLS,[1],0.17 /100WBC
same,PLATELET COUNT,[1],1193.5 x10E3/uL
same,ALANINE AMINOTRANSFERASE,[1],54.5 u/L
same,ALBUMIN,[1],4.02 G/DL
same,ALKALINE PHOSPHATASE,[1],346.5 u/L
same,ASPARTATE AMINOTRANSFERASE,[1],103.17 u/L
same,BLOOD UREA NITROGEN,[1],16.5 mg/dL
same,CARBON DIOXIDE,[1],29.83 mmol/L
same,CHLORIDE,[1],99.5 MEQ/L
same,CHOLESTEROL,[1],72.5 mg/dL
same,CREATINE PHOSPHOKINASE,[1],532.5 u/L
same,CREATININE,[1],0.18 mg/dL
same,GLUCOSE,[1],168.5 mg/dL
same,LACTATE DEHYDROGENASE,[1],536.5 u/L
same,LIPASE,[1],11.17 u/L
same,PHOSPHORUS,[1],11.48 mg/dL
same,POTASSIUM,[1],5.95 MEQ/L
same,SODIUM,[1],140.5 MEQ/L
same,TOTAL BILIRUBIN,[1],0.18 mg/dL
same,TOTAL PROTEIN,[1],5.77 G/DL
same,URIC ACID,[1],1.42 mg/dL
same,ABSOLUTE BASOPHIL,[2],0 CELLS/uL
same,ABSOLUTE EOSINOPHIL,[2],22.83 CELLS/uL
same,ABSOLUTE LYMPHOCYTE,[2],12202.83 CELLS/uL
same,ABSOLUTE MONOCYTE,[2],158 CELLS/uL
same,ABSOLUTE SEGMENTED NEUTROPHIL,[2],1283 CELLS/uL
same,BASOPHIL,[2],0%
same,EOSINOPHIL,[2],0.17%
same,ERYTHROCYTE COUNT,[2],5.88 x10E6/uL
same,HEMATOCRIT,[2],36.62%
same,HEMOGLOBIN,[2],14.07 G/DL
same,LEUKOCYTE COUNT,[2],13.67 x10E3/uL
same,LYMPHOCYTE,[2],89.5%
same,MEAN CORPUSCULAR HEMOGLOBIN,[2],23.95 pg
same,MEAN CORPUSCULAR HEMOGLOBIN CONCENTRATION,[2],38.43 G/DL
same,MEAN CORPUSCULAR VOLUME,[2],62.28 fL
same,MONOCYTE,[2],1.17%
same,NEUTROPHIL,[2],9.17%
same,NUCLEATED RED BLOOD CELLS,[2],0.17 /100WBC
same,PLATELET COUNT,[2],1198 x10E3/uL
same,ALANINE AMINOTRANSFERASE,[2],51 u/L
same,ALBUMIN,[2],4.3 G/DL
same,ALKALINE PHOSPHATASE,[2],343 u/L
same,ASPARTATE AMINOTRANSFERASE,[2],89.83 u/L
same,BLOOD UREA NITROGEN,[2],17.67 mg/dL
same,CARBON DIOXIDE,[2],27.17 mmol/L
same,CHLORIDE,[2],98.33 MEQ/L
same,CHOLESTEROL,[2],82.5 mg/dL
same,CREATINE PHOSPHOKINASE,[2],533.33 u/L
same,CREATININE,[2],0.18 mg/dL
same,GLUCOSE,[2],152.67 mg/dL
same,LACTATE DEHYDROGENASE,[2],220.33 u/L
same,LIPASE,[2],11.5 u/L
same,PHOSPHORUS,[2],11.25 mg/dL
same,POTASSIUM,[2],6.29 MEQ/L
same,SODIUM,[2],140.53 MEQ/L
same,TOTAL BILIRUBIN,[2],0.22 mg/dL
same,TOTAL PROTEIN,[2],6.12 G/DL
same,URIC ACID,[2],1.42 mg/dL
same,ABSOLUTE BASOPHIL,[3],0 CELLS/uL
same,ABSOLUTE EOSINOPHIL,[3],33.33 CELLS/uL
same,ABSOLUTE LYMPHOCYTE,[3],12179.67 CELLS/uL
same,ABSOLUTE MONOCYTE,[3],152 CELLS/uL
same,ABSOLUTE SEGMENTED NEUTROPHIL,[3],1268.33 CELLS/uL
same,BASOPHIL,[3],0%
same,EOSINOPHIL,[3],0.33%
same,ERYTHROCYTE COUNT,[3],5.03 x10E6/uL
same,HEMATOCRIT,[3],31.97%
same,HEMOGLOBIN,[3],12.87 G/DL
same,LEUKOCYTE COUNT,[3],13.63 x10E3/uL
same,LYMPHOCYTE,[3],89.67%
same,MEAN CORPUSCULAR HEMOGLOBIN,[3],25.6 pg
same,MEAN CORPUSCULAR HEMOGLOBIN CONCENTRATION,[3],40.27 G/DL
same,MEAN CORPUSCULAR VOLUME,[3],63.57 fL
same,MONOCYTE,[3],1%
same,NEUTROPHIL,[3],9%
same,NUCLEATED RED BLOOD CELLS,[3],0 /100WBC
same,PLATELET COUNT,[3],1225.67 x10E3/uL
same,ALANINE AMINOTRANSFERASE,[3],46.67 u/L
same,ALBUMIN,[3],3.87 G/DL
same,ALKALINE PHOSPHATASE,[3],333.67 u/L
same,ASPARTATE AMINOTRANSFERASE,[3],83.33 u/L
same,BLOOD UREA NITROGEN,[3],16 mg/dL
same,CARBON DIOXIDE,[3],30.33 mmol/L
same,CHLORIDE,[3],100.33 MEQ/L
same,CHOLESTEROL,[3],61.33 mg/dL
same,CREATINE PHOSPHOKINASE,[3],318 u/L
same,CREATININE,[3],0.15 mg/dL
same,GLUCOSE,[3],154 mg/dL
same,LACTATE DEHYDROGENASE,[3],304.33 u/L
same,LIPASE,[3],10.33 u/L
same,PHOSPHORUS,[3],11.37 mg/dL
same,POTASSIUM,[3],6.36 MEQ/L
same,SODIUM,[3],141.6 MEQ/L
same,TOTAL BILIRUBIN,[3],0.2 mg/dL
same,TOTAL PROTEIN,[3],5.7 G/DL
same,URIC ACID,[3],1.67 mg/dL
